Assay results taken from patent US9096544B2, “Therapeutic compounds” (Wayne State University, priority 2009, dated 2015).

Experiments:
Capan-2 cells = assay: Test I: growth inhibition of Capan-2 cells (MTT); type: cell-based; conditions: 1 μM
Experimental: (§1) Pancreatic cancer cell lines (COLO357, PANC-1, Capan-2, AsPc-1 cells and MiaPaCa-2 cells obtained from American Type Culture Collection; ATCC, Rockville, Md.) were treated with 1 μM 3-Cl-AHPC and compound 16 for various times. Apoptosis in cells were analyzed by flow cytometry using Annexin V-FITC binding together with propidium iodide (PI) staining (Annexin V-FITC apoptosis Detection Kit 1, BD Biosciences, San Diego, Calif.). Data acquisition was done on a FACS Calibur flow cytometer (BD) and analyzed with CellQuest software (BD Biosciences). 3-Cl-AHPC and compound 16 mediated inhibition of cell growth were determined by 3-(4,5-dimethylthiazol-2-yl)-2,5-diphenyltetrazolium bromide (MTT) assay. The cells were seeded on 96-well plates at a density of 4×10^4 cells/well in a volume of 200 μl culture medium. 1 μM AHP3 and 3-Cl-AHPC in DMSO (final concentration 0.1%) were added to the cells for various times. […] After discarding the medium, MTT precipitates were solubilized with 200 μl DMSO and the plates read on a BioTeK Synergy HT (BioTeK Instrument Inc., Vermont) at an absorbance 570 nm. […] The spheroids were stained with acridine orange/ethidium bromide staining and immediately visualized and photographed with fluorescence microscope (OLYMPUS CKX41). […] Then spheroids were visualized and photographed with a fluorescence microscope.

COLO357 cells [1] = assay: Test I: apoptosis of COLO357 pancreatic cancer cells (Annexin V-FITC/PI); type: cell-based; conditions: 1 μM, 48 h
Experimental: as §1

FFMA-AML cells = assay: Test D: inhibition of FFMA-AML growth in NOD-SCID mice (survival); type: in vivo
Experimental: FIG. 6 illustrates 3-Cl-AHPC and compound 16 inhibition of FFMA-AML cell proliferation in NOD-SCID mice and prolongation of their survival. A) Sixteen NOD-SCID mice, which had been randomized into two groups of eight each, were injected through the tail vein with 1×10^6 FFMA-AML cells. Intravenous injection of vehicle or 3-Cl-AHPC (30 mg/kg) twice daily for 4 days was instituted 24 h later. B) An identical study was performed with the exception that 3-Cl-AHPC was administered interperitoneally. C) Twenty four NOD-SCID mice were randomized into three groups of eight. […] The mice were monitored for toxicity and survival.
Non-obese diabetic-severe combined immunodeficiency (NOD-SCID) and ICR-SCID mice were obtained from Jackson Laboratories (Bar Harbor, Me.) and Taconic Farms (Germantown, N.Y.), respectively. A) FFMA-AML and TF(v-SRC) systemic models: NOD-SCID and ICR-SCID mice (4 to 5 weeks old) were injected with either FFMA-AML or TF(v-SRC) cells intravenously. Treatment with either vehicle, 3-Cl-AHPC or compound 16 (the compound of Example 1) was instituted the following day. Once symptoms such as diarrhea, dehydration, weight loss, ascites, paralysis or general weakness became evident, mice were euthanized. B) TF(v-SRC) subcutaneous mouse model. ICR-SCID mice were trocared subcutaneously bilaterally with TF(v-SRC) tumor fragments. Animals with equal tumor weights determined as described previously (Zhang Y. et al., Blood. 2002; 100:2917-2925) were assigned to three experimental arms: 1) control (vehicle treated), 2) subcutaneously treated with compound 16, and 3) intravenously treated with compound 16. The percent increase in the host life-span (% ILS) of the FFMA-AML and TF(v-SRC) bearing mice was calculated by subtracting the […] divided by the median day of death of the AML-bearing vehicle treated mice. In order to determine the efficacy of the 3-Cl-AHPC and compound 16, survival distribution of the 3-Cl-AHPC or compound 16-treated (T) or vehicle (C) groups were compared using the log-rank test. Survival was characterized as the duration of the animal's life span 24 h after the initiation of the xenograft until an observed event (euthanasia or death). A p-value of less than 5% (p<0.05) was considered statistically significant.
The ability of 3-Cl-AHPC and compound 16 to inhibit the growth of FFMA-AML cells in NOD-SCID mice was determined. NOD-SCID mice randomly assigned to two groups of eight mice each were injected with 1 million cells through the tail vein. The mice then received either vehicle or 3-Cl-AHPC (30 mg/kg) given intravenously twice daily for 4 days. […]

COLO357 cells [2] = assay: Test I: growth inhibition of COLO357 cells (MTT); type: cell-based; conditions: 1 μM
Experimental: as §1

[3] = test system: pancreatic cancer stem cells (CD44+/CD24+ cells obtained from PANC-1, Capan-2 and MiaPaCa-2 cells); assay: Test J: spheroid formation by CD44+/CD24+ pancreatic cancer stem cells; type: cell-based
Experimental: Apoptosis and Growth Inhibition of Pancreatic Cancer Stem Cells (Obtained from PANC-1, Capan-2 and MiaPaCa-2 Cells) by Compound 16 and 3-Cl-AHPC.
Cells were grown to 70-80% confluence and then trypsinised and washed with sorting buffer (1×PBS, 5% FCS). The cells were resuspended with […] sorting buffer and incubated with 15-20 μl anti-CD24-FITC, anti-CD44-PE primary antibodies for 30 min at ice. The cells were washed and resuspended in 500 μl of sorting buffer and sorted using FACSAria system (BD Immunocytochemistry Systems, Franklin lakes, NJ).
The sorted CD44^+/CD24^+ cells were suspended in serum-free stem cell medium containing DMEM/F12 (1:1) supplemented with B27 (Life Technologies, Gaithersburg, Md.), 20 ng/ml EGF (Biomol International, Plymouth, Pa.)), 20 ng/ml fibroblast growth factor (Biomol International, Plymouth, Pa.), and 100 μg/ml gentamycin. Approximately 150-200 cells per well were seeded in an ultra low-attachment 96-well plate (Corning Inc, Lowell, Mass.). 3-Cl-AHPC and compound 16 were added the day after cells were plated or after 7 days of spheroid formation. Spheriods were photographed and measured utilizing a Olympus microscope (OLYMPUS CKX41) and Olympus microscope digital camera with DP2-BSW software (Olympus soft imaging solutions GmbH, Germany).

SMILES	inhibition of growth (Capan-2 cells)	cells in which induction of apoptosis was noted (COLO357 cells [1]) [%]	increase in the length of survival over vehicle (FFMA-AML cells; 30 mg/kg intravenously twice daily for 4 days, p value 0.0001) [%]	toxicity in treated mice (FFMA-AML cells; 3-Cl-AHPC 30 mg/kg twice daily for 4 days)	inhibition of growth (COLO357 cells [2])	spheroid formation by CD24+/CD44+ cells [3]	increase in survival (ILS) (FFMA-AML cells; 5.0 mg/kg or 7.5 mg/kg twice a day for 4 days, tail vein, p=0.0002) [%]	toxicity in treated mice (FFMA-AML cells; compound 16 5.0 or 7.5 mg/kg twice a day)
O=C(O)C=Cc1ccc(-c2ccc(O)c(C34CC5CC(CC(C5)C3)C4)c2)c(Cl)c1 [Compound 3-Cl-AHPC, 4-[3-(1-adamantyl)-4-hydroxyphenyl]-3-chlorocinnamic acid, reference compound]	significant inhibition of growth	80	25	toxicity including weight loss and decreased physical activity	significant inhibition of growth	inhibited their ability to form spheroids		
O=C(O)/C=C/c1cnc(-c2ccc(O)c(C34CC5CC(CC(C5)C3)C4)c2)nc1 [Compound 16, (E)-3-[2-(3-(1-Adamantyl)-4-hydroxyphenyl)-5-pyrimidinyl]-2-propenoic acid]	significant inhibition of growth	80			significant inhibition of growth	inhibited their ability to form spheroids	26	extremely well tolerated and no toxicity was noted
